# According to patent US10183949B2, “Pyrimidinone derivative having autotaxin-inhibitory activity” (The University of Tokyo, priority 2014, dated 2019):
# Target: T1, Human autotaxin enzyme (Homo sapiens, UniProt Q13822)
# T1 construct: purchased R&D System
# Experiment: Evaluation of autotaxin inhibitor, 18:0 Lyso PC / choline assay (Test Example 2)
# Format: biochemical
# Details: autotaxin inhibition, IC50 class; read-out: Inhibitor activity
# Outline: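 Human autotaxin in 100 mM Tris-HCl pH 7.5, 150 mM NaCl, 5 mM MgCl2, 0.05% Triton X-100 reacted with 18:0 Lyso PC (200 μM stock) and test compound 2 h at room temperature. Released choline quantified via choline oxidase/peroxidase resorufin fluorescence (ex 531/em 598 nm, 20 min); inhibition vs no-compound and no-enzyme controls, concentration-response curve.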
row,Structure (SMILES),IC50 [nM]
1,N#CC1(NC(=O)Cn2c3nc(cc2=O)-c2ccc(Cl)cc2NC(=O)/C=C/CCO3)CC1 [Compound I-0257],10 to 100
2,CC(=O)Nc1cc(Cl)ccc1-c1cc(=O)n(CC(=O)OC(C)(C)C)c(C)n1 [Compound I-0245],< 10
3,CSc1nc(-c2ccc(Cl)cc2NC(C)=O)cc(=O)n1CC(=O)NC(C)(C)C [Compound I-0251],10 to 100

# Same assay, conditions: human autotaxin enzyme, 18:0 Lyso PC substrate, choline assay, room temperature 2 hours; read-out: Inhibitor activity (IC50)
row,Structure (SMILES),IC50 [nM]
1,NS(=O)(=O)CCNC(=O)c1cccc(Cn2c(CCCC(F)(F)F)nc(-c3ccc(Cl)cc3)cc2=O)c1 [Compound I-0186],100 to 1000
2,CNC(=O)CN1CCC(NC(=O)Cn2c(CCCC(F)(F)F)nc(-c3ccc(Cl)cc3)cc2=O)CC1 [Compound I-0129],100 to 1000
3,CCNS(=O)(=O)CCNC(=O)Cn1c(CCCC(F)(F)F)nc(-c2ccc(Cl)cc2)cc1=O [Compound I-0145],10 to 100
4,CCCCCNc1nc(-c2ccc(C(F)(F)F)cc2)cc(=O)n1Cc1ccccc1 [Compound I-0004],≥ 1000
5,O=C(c1cccc(Cn2c(CCCC(F)(F)F)nc(-c3ccc(Cl)cc3)cc2=O)c1)N1CCC(CO)CC1 [Compound I-0159],< 10
6,CC(C)(O)C1CCN(C(=O)Cn2c(CCCC(F)(F)F)nc(-c3ccc(C(F)(F)F)cc3)cc2=O)CC1 [Compound I-0352],10 to 100
7,Cc1nc(-c2ccc(Cl)cc2NC(=O)C2CC2)cc(=O)n1CC(=O)NC1(C)COC1 [Compound I-0419],10 to 100
8,NC(=O)C1CCN(C(=O)Cn2c(CCCC(F)(F)F)nc(-c3ccc(Cl)cc3)cc2=O)CC1 [Compound I-0118],10 to 100
9,CC(=O)Nc1cc(Cl)ccc1-c1cc(=O)n(CC(=O)N2CCN(CCC(=O)c3ccc4[nH]c(=O)oc4c3)CC2)cn1 [Compound I-0499],100 to 1000
10,COC1CCN(c2cc(=O)n(CC(=O)NC3(C#N)CC3)c(CCCC(F)(F)F)n2)CC1 [Compound I-0238],100 to 1000
11,O=C(Cn1c(CCCC(F)(F)F)nc(-c2ccc(C(F)(F)F)cc2)cc1=O)N1CCS(=O)(=O)CC1 [Compound I-0349],10 to 100
12,CC(C)(C)C(=O)Nc1cc(Cl)ccc1-c1cc(=O)n(Cc2cccc(C(=O)N3CCC4(COC4)C3)c2)cn1 [Compound I-0495],10 to 100
13,CCCCCc1nc(-c2ccc(Cl)cc2)cc(=O)n1CC(=O)NC1CN2CCC1CC2 (stereo not shown) [Compound I-0104],100 to 1000
14,O=C(Cn1c(CCCC(F)(F)F)nc(-c2ccc(C(F)(F)F)cc2)cc1=O)NCC(O)CO (stereo not shown) [Compound I-0323],10 to 100
15,O=C(c1cccc(Cn2c(CCCC(F)(F)F)nc(-c3ccc(Cl)cc3)cc2=O)c1)N1CCSCC1 [Compound I-0153],10 to 100
16,COC(=O)Nc1cc(Cl)ccc1-c1cc(=O)n(CC(=O)NC2COC2)c(C)n1 [Compound I-0393],10 to 100
17,COC(=O)Nc1cc(Cl)ccc1-c1cc(=O)n(CC(=O)OC(C)(C)C#N)c(C)n1 [Compound I-0375],< 10
18,CC(C)(C)C(=O)Nc1cc(Cl)ccc1-c1cc(=O)n(Cc2cccc(C(=O)NCC3CCC(=O)NC3)c2)cn1 (stereo not shown) [Compound I-0498],100 to 1000
19,CC(C)(C)C(=O)Nc1cc(Cl)ccc1-c1cc(=O)n(Cc2cccc(C(=O)O)c2)cn1 [Compound I-0427],10 to 100
20,CC1(NC(=O)c2cccc(Cn3c(CCCC(F)(F)F)nc(-c4ccc(Cl)cc4)cc3=O)c2)COC1 [Compound I-0185],100 to 1000
21,CNC(=O)NC1CCN(C(=O)Cn2c(C)nc(-c3ccc(Cl)cc3NC(=O)OC)cc2=O)CC1 [Compound I-0383],10 to 100
22,COC(=O)Nc1cc(Cl)ccc1-c1cc(=O)n(CC(=O)NC2CCS(=O)(=O)C2)c(C)n1 (stereo not shown) [Compound I-0309],10 to 100
23,O=C(Cn1c(CCCC(F)(F)F)nc(-c2ccc(Cl)cc2)cc1=O)NCc1cc(=O)[nH]o1 [Compound I-0120],< 10

row,Structure (SMILES),IC50 [nM]
1,Cc1nc(-c2ccc(Cl)cc2NC(=O)C2CC2)cc(=O)n1CC(=O)NC1(c2ccc(F)cc2)COC1 [Compound I-0484],10 to 100
2,O=C(Cn1c(CCCC(F)(F)F)nc(-c2ccc(Cl)cc2CO)cc1=O)NCC1(CO)CC1 [Compound I-0328],10 to 100
3,CC(C)(C)C(=O)Nc1cc(Cl)ccc1-c1cc(=O)n(CC(=O)N2CCC(C(=O)O)CC2)c(CCC(F)(F)F)n1 [Compound I-0367],10 to 100
4,CCCCCc1nc(-c2ccc(Cl)cc2)cc(=O)n1CC(=O)NCCO [Compound I-0027],100 to 1000
5,CS(=O)(=O)N1CCN(C(=O)Cn2c(CCCC(F)(F)F)nc(-c3ccc(C(F)(F)F)cc3)cc2=O)CC1 [Compound I-0359],10 to 100
6,CCCCCc1nc(-c2ccc(Cl)cc2)cc(=O)n1CC(=O)NC1(C#N)CC1 [Compound I-0090],10 to 100
7,Cc1nc(-c2ccc(Cl)cc2NC(=O)C(C)(C)C)cc(=O)n1CC(=O)NC(C)(C)C [Compound I-0273],10 to 100
8,O=C(O)c1nc(Cn2c(CCCC(F)(F)F)nc(-c3ccc(Cl)cc3)cc2=O)cs1 [Compound I-0294],10 to 100
9,O=C(Cn1c(CCCC(F)(F)F)nc(-c2ccc(C(F)(F)F)cc2)cc1=O)NCC1CCO1 (stereo not shown) [Compound I-0318],10 to 100
10,O=C(Cn1cnc(-c2ccc(Cl)cc2)cc1=O)NC(Cc1ccccc1)C(=O)O (stereo not shown) [Compound I-0396],≥ 1000
11,COC(=O)Nc1cc(Cl)ccc1-c1cc(=O)n(CC(=O)N(C)C2(C)COC2)c(C)n1 [Compound I-0274],10 to 100
12,CCCCCc1nc(-c2ccc(Cl)cc2)cc(=O)n1Cc1cccc(C(=O)O)c1 [Compound I-0009],10 to 100
13,O=C(Cn1c(CCCC(F)(F)F)nc(-c2ccc(C(F)(F)F)cc2)cc1=O)N1CCOC(CO)C1 (stereo not shown) [Compound I-0338],10 to 100
14,CCCCCc1nc(-c2ccc(Cl)cc2)cc(=O)n1CC(=O)N1CCC(C(=O)OC)CC1 [Compound I-0113],10 to 100
15,Cc1nc(-c2ccc(Cl)cc2NC(=O)C2CC2)cc(=O)n1CC(=O)NC1(C)CC1 [Compound I-0401],10 to 100
16,COC(=O)Nc1cc(Cl)ccc1-c1cc(=O)n(CC(=O)N(C)C2(CO)CCCC2)c(C)n1 [Compound I-0302],10 to 100
17,CCCCCc1nc(-c2ccc(Cl)cc2)cc(=O)n1CC(=O)N1CCCC1C(=O)O (stereo not shown) [Compound I-0068],≥ 1000
18,CCCCCc1nc(-c2ccc(Cl)cc2)cc(=O)n1CC(=O)NC(C(=O)O)C(C)C (stereo not shown) [Compound I-0050],100 to 1000
19,CCCCCc1nc(-c2ccc(Cl)cc2)cc(=O)n1CC(=O)NCC(O)Cc1ccccc1 (stereo not shown) [Compound I-0088],10 to 100
20,CCCCCc1nc(-c2ccc(Cl)cc2)cc(=O)n1CC(=O)NC1CCCNC1=O (stereo not shown) [Compound I-0082],100 to 1000
21,O=C(Cn1c(CCCC(F)(F)F)nc(-c2ccc(Cl)cc2CO)cc1=O)NCC1(CO)COC1 [Compound I-0334],10 to 100
22,N#CCCCNc1nc(-c2ccc(C#N)cc2)cc(=O)n1Cc1ccccc1 [Compound I-0105],100 to 1000
23,O=C(Cn1c(CCCC(F)(F)F)nc(-c2ccc(Cl)cc2)cc1=O)NCc1ccnc(O)c1 [Compound I-0142],100 to 1000

row,Structure (SMILES),IC50 [nM]
1,Cc1nc(-c2ccc(Cl)cc2NC(=O)C2CC2)cc(=O)n1CC(=O)N1CCC(C(N)=O)CC1 [Compound I-0463],10 to 100
2,O=C(Cn1cnc(-c2ccc(Cl)cc2)cc1=O)NCCCCNC(=O)c1ccc2nn[nH]c2c1 [Compound I-0472],≥ 1000
3,Cc1nc(-c2ccc(F)cc2NC(=O)C(C)(C)C)cc(=O)n1CC(=O)NCC1(CO)COC1 [Compound I-0298],100 to 1000
4,O=C(c1cccc(Cn2c(CCCC(F)(F)F)nc(-c3ccc(Cl)cc3)cc2=O)c1)N1CCC2(COC2)C1 [Compound I-0195],< 10
5,Cc1nonc1CNC(=O)c1cccc(Cn2c(CCCC(F)(F)F)nc(-c3ccc(Cl)cc3)cc2=O)c1 [Compound I-0190],100 to 1000
6,CCCCCc1nc(-c2ccc(Cl)cc2)cc(=O)n1CC(=O)Nc1ncc(C#N)s1 [Compound I-0083],≥ 1000
7,Cc1nc(-c2ccc(Cl)cc2NC(=O)C(C)(C)C)cc(=O)n1Cc1cccc(C(=O)O)c1 [Compound I-0290],< 10
8,CNS(=O)(=O)CCNC(=O)Cn1c(C)nc(-c2ccc(Cl)cc2NC(=O)OC)cc1=O [Compound I-0465],< 10
9,O=C(NCc1ccnc(O)c1)c1cccc(Cn2c(CCCC(F)(F)F)nc(-c3ccc(Cl)cc3)cc2=O)c1 [Compound I-0192],10 to 100
10,O=C(c1cccc(Cn2c(CCCC(F)(F)F)nc(-c3ccc(Cl)cc3)cc2=O)c1)N1CCOCC1 [Compound I-0160],10 to 100
11,COC(=O)Nc1cc(Cl)ccc1-c1cc(=O)n(CC(=O)NC2(c3nc(=O)o[nH]3)CC2)c(C)n1 [Compound I-0470],< 10
12,O=C(Cn1c(CCCC(F)(F)F)nc(-c2ccc(C(F)(F)F)cc2)cc1=O)N1CCC(O)(Cc2ccccc2)CC1 [Compound I-0369],100 to 1000
13,CCCCCc1nc(-c2ccc(Cl)cc2)cc(=O)n1CC(=O)NC(C)(C)C(=O)O [Compound I-0056],< 10
14,CCCCCc1nc(-c2ccc(Cl)cc2)cc(=O)n1CC(=O)NC(C(=O)O)c1ccc(O)cc1 (stereo not shown) [Compound I-0060],10 to 100
15,O=C1CCN(C(=O)c2cccc(Cn3c(CCCC(F)(F)F)nc(-c4ccc(Cl)cc4)cc3=O)c2)CCN1 [Compound I-0179],10 to 100
16,O=C(c1cccc(Cn2c(CCCC(F)(F)F)nc(-c3ccc(Cl)cc3)cc2=O)c1)N(CCO)CCO [Compound I-0197],100 to 1000
17,CCCCCc1nc(-c2ccc(Cl)cc2)cc(=O)n1CC(=O)NC12CCC(C(=O)O)(CC1)CC2 [Compound I-0072],< 10
18,Cc1nc(-c2ccc(Cl)cc2NC(=O)C(C)(C)C)cc(=O)n1CC(=O)N1CCC(O)CC1 [Compound I-0301],10 to 100
19,CCCCCc1nc(-c2ccc(Cl)cc2)cc(=O)n1CC(=O)NCCC(=O)O [Compound I-0040],10 to 100
20,COC(=O)Nc1cc(Cl)ccc1-c1cc(=O)n(CC(=O)N2CC(C(C)(C)O)C2)c(C)n1 [Compound I-0441],100 to 1000
21,CCCCCc1nc(-c2ccc(Cl)cc2)cc(=O)n1CC(=O)NCCCCCC(=O)O [Compound I-0043],10 to 100
